Assay results: publication PMC10454728, “A Comparative Study on the Lysosomal Cation Channel TMEM175 Using Automated Whole-Cell Patch-Clamp, Lysosomal Patch-Clamp, and Solid Supported Membrane-Based Electrophysiology: Functional Characterization and High-Throughput Screening Assay Development” (International Journal of Molecular Sciences, 2023)
Values joined by “and” are separate entries in the source; they are usually repeats but may differ in a detail not shown here. Identical values can stand only once. “Also recorded” adds a separate entry of the source. Like-named read-outs stand apart in the source and are kept apart here.

How the values were obtained:
[1] = system: control lysosomes purified from HEK293 cells expressing endogenous TMEM175; test: SSME off-target compound effects on control lysosomes (SURFE2R N1)
Experimental: A solution exchange of 50 mM Na^+ against 50 mM K^+ was used to stimulate TMEM175. […] Average peak currents and SEM, recorded from N = 5 sensors, are shown. […] Each sensor was used for four measurements in the following sequence: in the absence of compound, in the presence of 100 nM compound, in the presence of 10 µM compound, and in the absence of compound (wash-out). Datasets were normalized to the peak current recorded in the absence of compound before averaging. […] The three different experimental conditions shown in one graph were applied on the same sensor. Average peak currents and SD from N = 4 sensors are shown, and no normalization was applied.

[2] = target: T1, TMEM175 (Homo sapiens, UniProt Q9BSA9); test: Whole-cell automated patch-clamp (APC) Cs+ flux assay, SyncroPatch 384i, HEK293 overexpressing TMEM175; type: cell-based
T1 sequence (Q9BSA9 1-504): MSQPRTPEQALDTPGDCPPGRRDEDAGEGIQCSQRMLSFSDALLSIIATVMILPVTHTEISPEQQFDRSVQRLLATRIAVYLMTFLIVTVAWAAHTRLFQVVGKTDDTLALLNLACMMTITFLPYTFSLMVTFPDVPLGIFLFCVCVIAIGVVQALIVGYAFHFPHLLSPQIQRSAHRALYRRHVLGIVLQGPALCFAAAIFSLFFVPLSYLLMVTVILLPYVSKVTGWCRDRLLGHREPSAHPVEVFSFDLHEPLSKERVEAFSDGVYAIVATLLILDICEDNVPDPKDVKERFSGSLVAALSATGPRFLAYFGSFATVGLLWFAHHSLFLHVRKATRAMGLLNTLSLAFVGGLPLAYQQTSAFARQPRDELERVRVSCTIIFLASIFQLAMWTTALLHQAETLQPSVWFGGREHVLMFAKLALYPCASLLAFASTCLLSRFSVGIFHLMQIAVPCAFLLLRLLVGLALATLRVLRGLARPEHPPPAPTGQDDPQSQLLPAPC
Experimental: To validate the APC assay, we compared currents between TMEM175-overexpressing cells and control HEK293 UT cells. […] In our compound application protocol, which was used to evaluate compound potencies, we consistently administered tool compounds to assess their impact on TMEM175 activity (Figure 7C).
The voltage protocol generation and data collection were performed with PatchControl384 v1.9.0 and analyzed with DataControl384 v2.2.0. A multi-hole, medium resistance chip with four patch-clamp holes per well was used for recording.
DMSO remained constant at 0.2% and BSA at 0.05% in the external solution throughout the assay, if not stated otherwise.
The voltage protocol applied for the investigation of the tool compounds (Figure 7) consisted of a 500 ms ramp from −80 mV to +80 mV, followed by a 400 ms step from −80 mV to +80 mV before returning to the holding potential of 0 mV (Figure 7B). The maximum outward current amplitude obtained at +80 mV from the ramp section was used for analysis. To investigate the blinded test compounds (Figure 8), an alternative voltage protocol was applied. […] The maximum outward current amplitude obtained at 0 mV from the voltage step section was used for analysis. In both voltage protocols, voltage sweeps were repeated every 10 s and currents sampled at 10 kHz.
The application protocol for agonists consisted of two additions of extracellular physiological solution for a minimum of 3 min, followed by the external application of the test compound for a minimum of 2 min (Figure 7C).
Currents recorded after compound addition were normalized to the baseline current before compound addition, averaged, and plotted over the compound concentration to determine the EC50 and IC50 values.

[3] = target: T1, TMEM175; test: SSME K+ flux compound assay on purified lysosomes overexpressing TMEM175 (SURFE2R 96SE); type: biochemical
Experimental: In brief, compound measurements using SSME are performed in a three-step process (Figure 6B). First, TMEM175-mediated K^+ translocation is measured through 50 mM K^+ concentration jumps. This represents the baseline current of TMEM175 activity (I0). […] Third, the activation through a 50 mM K^+ concentration jump is repeated, this time in the presence of the compound to record the modulated TMEM175 current (I). In this process, each individual sensor of the 96-well sensor plate is only exposed to a single concentration of the compound. The relative current amplitude I/I0 is used as a measure of the compound effect and averaged across sensors.
We applied 50 mM K^+ concentration jumps in the absence and presence of different compound concentrations to derive information about compound effects on K^+ flux through TMEM175; (B) Time dependence of recorded peak current amplitudes for the complete workflow, which involves multiple sequential measurements. […] The recording of each sensor well starts with the application of a control measurement, rinsing non-activating solution across the sensor (baseline recording). Afterwards, we performed three solution exchange measurements from 50 mM NaCl to 50 mM KCl to measure K^+ flux through TMEM175 (baseline TMEM175 current, I0). We then rinsed the sensor with non-activating solution containing the compound at a given concentration, followed by incubation of 15 min to equilibrate the sensors with the compound. Subsequently, the solution exchange from 50 mM NaCl to 50 mM KCl is repeated twice, but in the presence of the given compound concentration to determine the modulated peak current I. Afterwards, we repeated the measurement in the absence of the compound three times (wash-out) to recover the non-modulated TMEM175 current. We subtracted the average artifact current recorded with control lysosomes from I and I0 (Figure 1K), without considering off-target effects of the tested compound. […] Success rates were determined based on the QC criteria provided in the Methods section. […] We determined average values, AVGpos and AVGneg, and standard deviations, SDpos and SDneg, of the recorded peak currents. […] Error bars represent the SEM obtained from automated data analysis using DataControl96, based on variations of the currents obtained with the TMEM175 sample. Each compound concentration was recorded with at least N = 8 sensors. […] Imin was always fixed to 0 for inhibitors or 1 for enhancers, as indicated. […] A total of 50 µL of 0.1 mM octadecanethiol in isopropanol was added to each sensor well, following incubation for 30 min at room temperature to form an alkanethiol monolayer on the sensor surface. Subsequently, the sensors were washed twice with isopropanol and three times with ddH2O, before dry-tapping on a tissue. The subsequent process of sensor coating with lipid and lysosomes was carried out manually for the SURFE^2R N1 and automated with the SURFE^2R 96SE serving as a pipetting robot. In both cases, 1.5 µL of 7.5 mg/mL 1,2-diphytanoyl-sn-glycero-3-phosphocholine (DPhPC) in n-decane was added to the center of the circular gold surface, followed by the addition of 50 µL of non-activating solution to form the SSM. The composition of the non-activating solution was adjusted for each experiment (Table 2). […] SSM-coated 96-well sensor plates were stored at −80 °C before use.

[4] = system: TMEM175; settings: cited from earlier work; for IC50: read-out: IC50, literature
[5] = Table 4 fit, currents normalized to current before compound
[6] = from dose-response fit, Figure 8

Q: What does the source list for `CCCCC1(C2CCCC2)Cc2cc(OCCCC(=O)O)c(Cl)c(Cl)c2C1=O` (stereo not drawn) [DCPIB]?
A: Control current in presence of compound ([1]; 20 µM DCPIB): +0.69 ± 0.41 nA; Off-target effect compared to effect on TMEM175 lysosomes ([1]; 20 µM DCPIB): ~ 35%; EC50 [2]: 16.7 µM; EC50 ([3]; tool enhancers, K+ flux, 50 mM K+ jump, pH 7.6, 0 mV, artifact-corrected, read-out: Half saturation (EC50), SSME): 9.6 µM; Increase in K+ flux through TMEM175, literature ([4]; 50 µM, +80 mV, ref [6]): eight-fold

Q: Which results are given for `CCOC(=O)C1=C(N)Oc2ccc(Cl)cc2C1C(C#N)C(=O)OCC` (stereo not drawn) [SC-79]?
A: Control current in presence of compound ([1]; 30 µM SC-79): −0.64 ± 0.27 nA; n (Hill coefficient), APC ([2]; Table 4 fit): 1.17 ± 0.38; Imax − Imin (nA), APC [2, 5]: 2.45 ± 1.02 nA; Current potentiation, APC [2, 6]: 245 ± 102% and 345 ± 102%; EC50 ([2]; test-compound voltage protocol, outward current at 0 mV, not corrected for off-target effects, read-out: EC50 (µM), APC): 62 µM and 61.8 µM; n (Hill coefficient), SSME ([3]; Table 4 fit): 0.89 ± 0.6; Imax − Imin (nA), SSME [3, 5]: 0.09 ± 0.04 ^1 nA; Potentiation, SSME [3, 6]: 9 ± 4%; Increase in TMEM175-mediated K+ flux, literature ([4]; 10 µM, +80 mV, ref [48]): two-fold; Effect on TMEM175 in whole-cell patch-clamp, literature ([4]; ref [6]): did not find any effect

Q: Which “Off-target effect on control lysosomes” value ([1]; zinc, two highest concentrations) does the source give for `[Cl-].[Cl-].[Zn+2]` [Zn, ZnCl2] here?
A: Its value is “off-target inhibition”.

Q: What about the “Signal enhancement, APC” value ([2]; 0.5 mM ZnCl2, over 125 plates) of the same compound?
A: Its value is 301 ± 94%.

Q: And the “Effect of raising zinc up to 10 mM, APC” value ([2]; 0.5 mM to 10 mM, listed as zinc)?
A: Its value is “could not find any changes; also recorded: without further impacting the recorded currents”.

Q: What about the “Relative current, APC” value ([2]; enhancers, (50 µM), relative to baseline current (100%)) of the same compound?
A: The value was 400 ± 40% (50 µM).

Q: And the EC50 ([2]; tool compounds, Cs+ flux, outward current at +80 mV, 0.05% BSA, read-out: Half saturation (EC50), APC)?
A: The EC50 was 102 µM.

Q: And the “Effect of 10 mM compound on TMEM175 K+ current, SSME” value ([3]; 50 mM K+ jump)?
A: Its value is “full block”.

Q: What about the “IC50 in SSME relative to literature value (higher)” value ([3]; 4-AP vs largest literature value for K+ flux, zinc vs literature value) of the same compound?
A: Its value is 50 fold.

Q: What about the IC50 ([3]; K+ flux, 50 mM K+ jump, pH 7.6, 0 mV, external (cytosolic side) application, artifact-corrected, read-out: Half saturation (IC50), SSME) of the same compound?
A: The IC50 was 1530 µM.

Q: And the “Relative current, SSME” value ([3]; at 10 mM (highest concentration), relative to TMEM175 baseline current (100%))?
A: The value was 19.2 ± 4.6% (10 mM).

Q: And the IC50 ([4]; whole-organelle patch-clamp, ref [1])?
A: The IC50 was 38 ± 13 µM.

Q: For `Nc1ccncc1` [4-AP, 4-aminopyridine], which “Off-target signal potentiation on control lysosomes” value ([1]; 10 mM 4-AP) is on record?
A: Its value is “+380 pA”.

Q: What about the “Artifact current of control lysosomes in presence of compound” value ([1]; 10 mM 4-AP, 50 mM K+ jump) of the same compound?
A: Its value is −0.69 ± 0.37 nA.

Q: And the “Off-target effect compared to effect on TMEM175 lysosomes” value ([1]; 10 mM 4-AP, opposite direction)?
A: Its value is ~ 8%.

Q: And the “Effect on current of control lysosomes, H+ influx (pH jump)” value ([1]; 10 mM 4-AP, ΔpH 3.0)?
A: The value was “did not affect”.

Q: What about the “Signal block, APC” value ([2]; 1 mM 4-AP, over 125 plates) of the same compound?
A: Its value is 73 ± 14%.

Q: What about the “TMEM175 sample current in the presence of compound, SSME” value ([3]; 10 mM 4-AP, 50 mM K+ jump, not artifact-corrected) of the same compound?
A: The value was −1.22 ± 0.1 nA.

Q: What about the “Effect of 10 mM compound on TMEM175 K+ current, SSME” value ([3]; 50 mM K+ jump) of the same compound?
A: The value was “full block”.

Q: What about the IC50 ([4]; H+ flux, ref [45]) of the same compound?
A: The IC50 was […].

Q: What about the IC50 ([4]; K+ flux, ref [1]) of the same compound?
A: The IC50 was […].

Q: What about the IC50 ([4]; K+ flux, ref [28]) of the same compound?
A: Its IC50 is […].
